One may read the IC50 as the point on the concentration scale where inhibition reaches its midpoint.

One experiment concerns STAT6 activation. Description: STAT6 activation inhibition test (IL-4-induced alkaline phosphatase STAT6 reporter gene assay). It is filed as cell-based, human. As to conditions: Homo sapiens, HEK293; concentration giving 50% suppression of alkaline phosphatase activity induced by IL-4 (1 ng/mL), 16 hours; 293 cells stably expressing STAT6 gene and STAT6 reporter gene. The protocol:
The inhibitory activity on STAT6 activation of the compound according to present invention was evaluated according to the following test.
1) Construction of the STAT6 Reporter Gene
The oligonucleotide of SEQ ID: 1 resuting from three STAT6 binding regions of the human immunoglobulin germline ε gene promoter linked togeter, and the complementary strand thereof were mixed, and after thermal denaturation and annealing, the 5′ and the 3′ ends were respectively cut with the restriction enzymes Kpn I (TaKaRa Shuzo Code No. 1068A) and Xba I (TaKaRa ShuzoCode No. 1093A), and the resulting fragment was cloned into the Kpn I/Xba I site of the pUG-BGH-PLAP vector (described in Molecular Pharmacology, 49: 860–873 1996). In addition, the TK promoter region of the herpesvirus for inducing general transcription factors was cloned into the Xba I/Hind III (TaKaRa ShuzoCode No. 1060A) site of the pUG-BGH-PLAP vector. Then, to collect a stable expression cell strain, the neomycin resistance gene, that is a PGK-neo expression cassette, was incorporated into the Sal I (TaKaRa Shuzo, Code No. 1080A) site of this vector. Cloning of the TK promoter and the PGK-neo expression cassette was carried out according to Molecular Pharmacology, 49: 860–873 1996.
2) Construction of the STAT6 Expression Vector
Using the oligonucleotide of SEQ ID: 2 containing the initiation codon of the STAT6 gene and the oligonucleotide of SEQ ID: 3 containing the stop codon, Total RNA was prepared from human peripheral blood cells with the RNeasy Mini kit (OIAGEN, Code No. 74104). Thereafter, a reverse transcription reaction was carried out with the Takara RNA LA PCR kit (TaKaRa Shuzo, Code No. RR012A) to prepare cDNA, and using the primers of SEQ ID: 2 and 3, a PCR reaction was carried out, to amplify the STAT6 gene.
PCR product was digested with EcoR I (TaKaRa Shuzo, Code No. 1040A) and Xho I (TaKaRa Shuzo, 1094A), thereafter, the digested fragment was isolated on an agarose gel. The isolated fragment was incorporated into the vector fragment derived from the EcoR I/Xho I digestion of the pcDNA3.1 (+) (invtrogen, Code No. U790-20) vector.
3) Transformation and Preparation of a Stable Expression Cell Strain
In a Falcon 6-well plate for tissue culture (Becton Dickinson, Code No. 35-3046), 3.0×10^5 of 293 cells derived from human embryo kidney (American Type Culture Collection) were distributed and cultured overnight. The STAT6 reporter gene (1.5 μg), the STAT6 gene (1.5 μg) that were prepared and lipofectamine (GIBCO BRL, Code No. 18324-012) (20 μL) were mixed in OPTI-MEM culture medium (GIBCO BRL, Code No. 31985-070) (0.3 mL), and allowed to stand at room temperature for 20 minutes. Thereafter, the OPTI-MEM culture medium (1.2 mL) was further added, OPTI-MEM culture medium not containing fetal calf serum was added to washed cells, which were cultured for 2 hours. A culture medium (1.5 mL) containing fetal calf serum was added, and the cells were cultured for 19 more hours. The culture was continued by exchanging the culture medium and adding Geneticin (SIGMA, Code No. G-5013) so as to obtain 1 mg/mL, and cells with drug tolerance were selected. The selected drug tolerant cells were suspended in a culture medium containing 1 mg/mL of Geneticin, and distributed in a 96-well microplate (Becton Dickinson, Code No. 35-3072) so as to obtain 0.5 cells/well to carrry out cloning, and the clones expressing alkaline phosphatase in response to IL-4 were collected.
4) STAT6 Activation Inhibition Test
Cells stably expressing the STAT6 gene and the STAT6 reporter gene, and expressing alkaline phosphatase in response to IL-4 were distributed in a 96-well microplate (Becton Dickinson, Code No. 35-3072) so as to obtain 5000 cells/180 μL/well, and cultured overnight. […]
(A reporter such as luciferase makes a cellular process visible.)
As to `CN(CC(O)c1ccc(F)cc1)S(=O)(=O)c1csc2c1CCC/C2=N/OC(N)=O` (stereo not drawn) [Example 87, (7Z)-7-{[(Aminocarbonyl)oxy]imino}-3-{[[2-(4-fluorophenyl)-2-hydroxyethyl](methyl)amino]sulfonyl}-4,5,6,7-tetrahydro-1-benzothiophene], half-maximal inhibition (IC50) required 0.5 nM. As to `CN(CC(O)c1ccc(F)cc1)S(=O)(=O)c1csc2c1CCC/C2=N/OC(=O)C(C)(C)C` (stereo not drawn) [Example 88, (7Z)-7-{[(2,2-Dimethylpropanoyl)oxy]imino}-N-[2-(4-fluorophenyl)-2-hydroxyethyl]-N-methyl-4,5,6,7-tetrahydro-1-benzothiophene-3-sulfonamide], inhibition was half-maximal at 0.42 nM (IC50). `CN(CCc1ccccc1)C(=O)c1csc2c1CCC/C2=N/O` [Example 110, (7Z)-7-Hydroxyimino-4,5,6,7-tetrahydrobenzo[b]thiophene-3-carboxylic acid methylphenethyl amide]: the 50% inhibitory concentration (IC50) turned out to be 0.32 nM.

The experiment is the same for the next values; noted with them: concentration giving 50% suppression of alkaline phosphatase activity induced by IL-4 (1 ng/mL), 16 hours; 293 cells stably expressing STAT6 gene and STAT6 reporter gene.
For the compound `CC(C)C(=NO)c1cc(S(=O)(=O)N(C)CC(O)c2ccc(F)cc2)c(N)s1` (stereo not drawn) [Example 64, 2-Amino-5-(1-hydroxyimino-2-methylpropyl)thiophene-3-sulfonic acid[2-(4-fluorophenyl)-2-hydroxyethyl]-methyl-amide], the IC50 is 40 nM. That is a double-digit nanomolar value. For the compound `CCc1cccc(NC(=O)O/N=C2/CCCc3c(S(=O)(=O)N(C)CC(O)c4ccc(F)cc4)csc32)c1` (stereo not drawn) [Example 66, (7Z)-7-({[(3-Ethylanilino)carbonyl]oxo}imino)-3-{[[2-(4-fluorophenyl)-2-hydroxyethyl](methyl)amino]sulfonyl}-4,5,6,7-tetrahydro-1-benzothiophene], the IC50 came to 16 nM. This IC50 lies about 2.5-fold lower than the previous one. On the same count and under the same terms, to `CCOc1ccc(NC(=O)O/N=C2/CCCc3c(S(=O)(=O)N(C)CC(O)c4ccc(F)cc4)csc32)cc1` (stereo not drawn) [Example 73, (7Z)-7-({[(4-Ethoxyanilino)carbonyl]oxo}imino)-3-{[[2-(4-fluoro-phenyl)-2-hydroxyethyl](methyl)amino]sulfonyl}-4,5,6,7-tetrahydro-1-benzothiophene] belongs 0.9 nM. Still for that read-out and setting: under `CCNC(=O)O/N=C1/CCCc2c(S(=O)(=O)N(C)CC(O)c3ccc(F)cc3)csc21` (stereo not drawn) [Example 83, (7z)-7-({[(Ethylamino)carbonyl]oxo}imino)-3-{[[2-(4-fluorophenyl)-2-hydroxyethyl](methyl)amino]sulfonyl}-4,5,6,7-tetrahydro-1-benzothiophene] stands 34 nM; under `CN(CCc1ccc(F)cc1)C(=O)c1csc2c1CCC/C2=N/O` [Example 124, (7Z)-7-Hydroxyimino-4,5,6,7-tetrahydrobenzo[b]thiophene-3-carboxylic acid[2-(4-fluorophenyl)ethyl]-methyl-amide], 0.15 nM; under “(7Z)-N-{1-(4-Fluorophenyl)-2-[(7-hydroxyimino-4,5,6,7-tetrahydrobe nzo[b]-thiophene-3-sulfonyl)methylamino]ethyl}acetamide [Example 23]”, 9.5 nM.

For the origin of these results see US7217723B2, “Heterocyclic compound having oxime group” (Eisai Co., Ltd., priority 2004, dated 2007).
